Test results from publication PMC10269561, “Absence of Clinically Meaningful Drug-Drug Interactions with Rezafungin: Outcome of Investigations” (Microbiology Spectrum, 2023).
Entries after “also recorded” stand apart in the source; their conditions may differ. Numbered stars: 1 amine (or outer) side, 2 acyl side, 3 side chain; on linkers, the order of the positions; unused ones are H or OH. Bridge positions count the residues as written; N and C are the ends. Square brackets hold non-standard residues; d marks the D form. Peptide text beside a SMILES is read from it. * marks the point of attachment. Orn(4R-OH,5R-OCH2CH2NMe3+) = C[N+](C)(C)CCO[C@@H](N[*:3])[C@H](O)C[C@H](N[*:1])C(=O)[*:2]; pTerphenylCO(4''-OnC5H11) = CCCCCOc1ccc(-c2ccc(-c3ccc(C(=O)*)cc3)cc2)cc1; hTyr(3S-OH,4S-OH) = N[C@H](C(=O)O)[C@H](O)[C@@H](O)c1ccc(O)cc1; Pro(3S-OH,4S-Me) = C[C@H]1CN[C@H](C(=O)O)[C@H]1O; Hyp = O=C(O)[C@@H]1C[C@@H](O)CN1

Experiments:
human P-gp [1] = target: T1, human P-gp (Homo sapiens, UniProt P08183); assay: NC-049 P-gp substrate potential in Caco-2 monolayers; assay type: in vitro ADME; conditions: with/without inhibitors
Description: (§1) Microbiology Spectrum Supplementary materials
(§2) Table S 4Summary of initial in vitro assessments […]
(§3) whether rezafungin can induce CYP isoforms 1A2, 2B6, or 3A4. mRNA expression) of CYP1A2 and CYP2B6, and, in the case of […]
(§4) Abbreviations: ABC = ATP binding cassette; BCRP = breast cancer resistance protein; BSEP = bile salt export pump; CYP = cytochrome P450; MATE = multidrug and toxic compound extrusion; MDCK = Madin-Darby canine kidney; MDR = multidrug resistance protein; mRNA = messenger ribonucleic acid; OAT = organic anion transporter; OATP = organic anion transporter protein; OCT – organic cation transporter; OCTN = organic cation transporter novel; P-gp = P-glycoprotein; SLC = solute carrier.

BCRP = BCRP (Homo sapiens, UniProt Q9UNQ0); assay: NC-049 BCRP substrate potential in Caco-2 monolayers; assay type: in vitro ADME; conditions: with/without inhibitors
Description: as §1, §2, §3, §4

human OATP1B1 = human OATP1B1 (Homo sapiens, UniProt Q9Y6L6); assay: NC-052 OATP1B1 substrate study in transiently transfected HEK293 cells; assay type: in vitro ADME
Description: as §1, §2, §3, §4

human OATP1B3 = human OATP1B3 (Homo sapiens, UniProt Q9NPD5); assay: NC-052 OATP1B3 substrate study in transiently transfected HEK293 cells; assay type: in vitro ADME
Description: as §1, §2, §3, §4

human P-gp [2] = target: T1, human P-gp; assay: NC-152 transporter inhibition, P-gp; assay type: in vitro ADME; conditions: in vitro cell test system
Description: (§5) Abbreviations: ABC = ATP binding cassette; BCRP = breast cancer resistance protein; BSEP = bile salt export pump; CYP = cytochrome P450; MATE =
(§6) multidrug and toxic compound extrusion; MDCK = Madin-Darby canine kidney; MDR = multidrug resistance protein; mRNA = messenger ribonucleic acid;
(§7) OAT = organic anion transporter; OATP = organic anion transporter protein; OCT – organic cation transporter; OCTN = organic cation transporter novel; P-gp =
(§8) P-glycoprotein; SLC = solute carrier.

human OAT1 = human OAT1 (Homo sapiens, UniProt Q4U2R8); assay: NC-152 transporter inhibition, OAT1; assay type: in vitro ADME; conditions: in vitro cell test system
Description: as §1, §2, §3, §4

OCT1 = target: T2, OCT1 (Homo sapiens, UniProt O15245); assay: NC-152 transporter inhibition, OCT1; assay type: in vitro ADME
T2 sequence (O15245 1-554): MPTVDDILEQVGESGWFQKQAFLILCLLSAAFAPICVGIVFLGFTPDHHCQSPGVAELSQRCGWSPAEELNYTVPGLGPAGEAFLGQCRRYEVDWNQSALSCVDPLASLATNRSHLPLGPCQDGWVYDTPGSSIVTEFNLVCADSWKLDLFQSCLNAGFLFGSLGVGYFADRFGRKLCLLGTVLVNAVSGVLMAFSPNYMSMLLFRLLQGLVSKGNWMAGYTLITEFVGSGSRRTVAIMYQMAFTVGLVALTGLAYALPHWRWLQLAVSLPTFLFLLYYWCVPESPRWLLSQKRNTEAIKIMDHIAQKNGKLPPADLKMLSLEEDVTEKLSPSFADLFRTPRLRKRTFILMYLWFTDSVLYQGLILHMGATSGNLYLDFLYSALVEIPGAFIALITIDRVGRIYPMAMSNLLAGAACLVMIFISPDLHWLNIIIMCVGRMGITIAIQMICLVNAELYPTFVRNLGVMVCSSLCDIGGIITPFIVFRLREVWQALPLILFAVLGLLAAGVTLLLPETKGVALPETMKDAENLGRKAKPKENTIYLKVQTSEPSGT
Description: as §5, §6, §7, §8

CYP1A2 [3] = target: T3, CYP1A2 (Homo sapiens, UniProt P05177); assay: NC-012 CYP450 inhibition screening, recombinant CYP1A2; assay type: in vitro ADME; conditions: 10 μM, fluorogenic substrate, recombinant human CYP
Description: as §1, §2, §3, §4

CYP2B6 [4] = target: T4, CYP2B6 (Homo sapiens, UniProt P20813); assay: NC-012 CYP450 inhibition screening, recombinant CYP2B6; assay type: in vitro ADME; conditions: 10 μM, fluorogenic substrate, recombinant human CYP
Description: as §1, §2, §3, §4

CYP2C8 [5] = target: T5, CYP2C8 (Homo sapiens, UniProt P10632); assay: NC-012 CYP450 inhibition screening, recombinant CYP2C8; assay type: in vitro ADME; conditions: fluorogenic substrate, recombinant human CYP
T5 sequence (P10632 1-490): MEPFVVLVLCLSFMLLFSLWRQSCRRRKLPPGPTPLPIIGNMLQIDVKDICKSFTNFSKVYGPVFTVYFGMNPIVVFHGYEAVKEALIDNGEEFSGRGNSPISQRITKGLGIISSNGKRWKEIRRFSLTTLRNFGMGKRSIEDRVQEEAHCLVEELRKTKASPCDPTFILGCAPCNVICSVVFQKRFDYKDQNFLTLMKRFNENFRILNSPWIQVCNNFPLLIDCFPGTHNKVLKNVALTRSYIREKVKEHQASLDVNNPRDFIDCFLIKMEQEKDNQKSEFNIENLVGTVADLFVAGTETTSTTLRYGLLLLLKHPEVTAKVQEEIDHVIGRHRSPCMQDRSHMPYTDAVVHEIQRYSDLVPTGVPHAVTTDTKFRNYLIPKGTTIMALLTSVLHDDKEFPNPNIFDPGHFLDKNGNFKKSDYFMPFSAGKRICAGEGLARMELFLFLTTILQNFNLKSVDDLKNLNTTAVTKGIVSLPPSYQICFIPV
Description: as §1, §2, §3, §4

CYP3A4 [6] = target: T6, CYP3A4 (Homo sapiens, UniProt P08684)
Description: as §5, §6, §7, §8

CYP1A2 [7] = target: T3, CYP1A2; conditions: human liver microsomes; 0.1 to 25 μM; NC-153
Description: as §1, §2, §3, §4

CYP2B6 [8] = target: T4, CYP2B6; conditions: human liver microsomes; 0.1 to 25 μM; NC-153
Description: as §1, §2, §3, §4

CYP3A4 [9] = target: T6, CYP3A4; conditions: human liver microsomes; midazolam and testosterone as substrates; 0.1 to 25 μM; NC-153
Description: as §1, §2, §3, §4

CYP2D6 = CYP2D6 (Homo sapiens, UniProt P10635); assay: NC-153 time-dependent inhibition in human liver microsomes, CYP2D6; assay type: in vitro ADME; conditions: 0.1 to 25 μM
Description: as §1, §2, §3, §4

CYP2C8 [10] = target: T5, CYP2C8; assay: NC-013 CYP2C8 inhibition in human liver microsomes; assay type: in vitro ADME; set-up: in human liver microsomal preparations; from tissue; host or cells: human liver microsomes; conditions: read-out: IC50, CYP2C8 (weak inhibition)
Description: as §5, §6, §7, §8

CYP2C8 [11] = target: T5, CYP2C8; assay: NC-153 time-dependent inhibition in human liver microsomes, CYP2C8; assay type: in vitro ADME; set-up: in human liver microsomal preparations; from tissue; host or cells: human liver microsomes; conditions: 0.1 to 25 μM
Description: as §1, §2, §3, §4

T1 sequence (P08183 whole entry): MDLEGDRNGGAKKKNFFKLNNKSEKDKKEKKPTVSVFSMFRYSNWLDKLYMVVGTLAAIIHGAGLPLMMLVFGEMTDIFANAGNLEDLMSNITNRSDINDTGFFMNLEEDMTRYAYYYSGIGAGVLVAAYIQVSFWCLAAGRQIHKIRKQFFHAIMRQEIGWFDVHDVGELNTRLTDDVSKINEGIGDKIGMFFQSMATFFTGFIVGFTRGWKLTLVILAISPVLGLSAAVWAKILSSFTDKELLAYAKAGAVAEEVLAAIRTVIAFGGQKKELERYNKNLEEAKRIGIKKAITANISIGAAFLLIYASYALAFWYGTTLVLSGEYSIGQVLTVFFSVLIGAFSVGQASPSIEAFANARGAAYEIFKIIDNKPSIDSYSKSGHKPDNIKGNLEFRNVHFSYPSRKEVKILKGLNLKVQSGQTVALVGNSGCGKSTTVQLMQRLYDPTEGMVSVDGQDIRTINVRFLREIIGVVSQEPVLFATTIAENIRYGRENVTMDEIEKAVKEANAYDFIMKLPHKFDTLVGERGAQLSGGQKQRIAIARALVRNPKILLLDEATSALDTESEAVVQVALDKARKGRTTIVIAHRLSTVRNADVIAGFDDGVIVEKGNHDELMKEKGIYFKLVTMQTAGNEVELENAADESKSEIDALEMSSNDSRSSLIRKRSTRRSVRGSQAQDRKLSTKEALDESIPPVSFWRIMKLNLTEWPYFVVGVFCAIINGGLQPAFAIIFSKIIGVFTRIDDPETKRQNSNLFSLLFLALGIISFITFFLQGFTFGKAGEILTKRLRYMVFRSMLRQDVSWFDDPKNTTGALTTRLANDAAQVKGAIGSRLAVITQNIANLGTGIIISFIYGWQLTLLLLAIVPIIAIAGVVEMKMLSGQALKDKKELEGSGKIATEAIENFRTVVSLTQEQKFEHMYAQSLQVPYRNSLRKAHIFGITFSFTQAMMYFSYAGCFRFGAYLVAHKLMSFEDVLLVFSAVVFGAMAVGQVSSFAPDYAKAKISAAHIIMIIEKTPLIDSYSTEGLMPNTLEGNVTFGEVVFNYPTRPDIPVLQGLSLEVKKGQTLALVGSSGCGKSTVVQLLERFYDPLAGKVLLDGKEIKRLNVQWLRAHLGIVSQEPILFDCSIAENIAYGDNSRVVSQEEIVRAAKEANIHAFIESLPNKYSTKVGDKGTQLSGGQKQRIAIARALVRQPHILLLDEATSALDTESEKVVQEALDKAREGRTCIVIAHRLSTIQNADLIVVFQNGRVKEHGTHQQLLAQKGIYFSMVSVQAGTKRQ
T4 sequence (P20813 whole entry): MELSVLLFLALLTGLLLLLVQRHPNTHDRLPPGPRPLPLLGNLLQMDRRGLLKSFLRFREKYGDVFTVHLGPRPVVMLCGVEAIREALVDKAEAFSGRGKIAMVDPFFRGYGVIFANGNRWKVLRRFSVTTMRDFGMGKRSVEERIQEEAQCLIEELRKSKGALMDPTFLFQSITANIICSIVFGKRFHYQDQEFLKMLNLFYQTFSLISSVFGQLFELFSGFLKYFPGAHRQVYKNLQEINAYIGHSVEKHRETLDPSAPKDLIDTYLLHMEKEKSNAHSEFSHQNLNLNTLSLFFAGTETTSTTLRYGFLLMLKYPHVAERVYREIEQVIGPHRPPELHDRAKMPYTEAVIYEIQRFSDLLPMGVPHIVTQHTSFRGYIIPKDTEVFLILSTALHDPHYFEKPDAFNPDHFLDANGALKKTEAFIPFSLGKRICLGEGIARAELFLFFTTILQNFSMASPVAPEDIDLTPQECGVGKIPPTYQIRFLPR
T3 sequence (P05177 whole entry): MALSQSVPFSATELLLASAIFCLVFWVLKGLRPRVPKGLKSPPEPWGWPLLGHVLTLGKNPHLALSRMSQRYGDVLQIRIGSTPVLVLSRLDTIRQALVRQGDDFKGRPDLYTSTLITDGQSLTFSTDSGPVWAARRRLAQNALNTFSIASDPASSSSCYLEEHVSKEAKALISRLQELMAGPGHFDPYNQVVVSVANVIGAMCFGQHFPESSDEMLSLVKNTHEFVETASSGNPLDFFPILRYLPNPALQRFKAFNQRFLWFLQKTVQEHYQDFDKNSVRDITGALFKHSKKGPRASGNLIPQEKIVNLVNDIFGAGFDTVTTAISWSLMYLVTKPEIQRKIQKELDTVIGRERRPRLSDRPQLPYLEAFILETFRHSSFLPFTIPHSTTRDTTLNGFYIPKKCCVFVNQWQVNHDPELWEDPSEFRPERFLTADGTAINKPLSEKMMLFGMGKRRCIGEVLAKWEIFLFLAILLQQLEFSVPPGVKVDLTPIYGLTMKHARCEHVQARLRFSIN
Chain of human OATP1B1 (Q9Y6L6 whole entry): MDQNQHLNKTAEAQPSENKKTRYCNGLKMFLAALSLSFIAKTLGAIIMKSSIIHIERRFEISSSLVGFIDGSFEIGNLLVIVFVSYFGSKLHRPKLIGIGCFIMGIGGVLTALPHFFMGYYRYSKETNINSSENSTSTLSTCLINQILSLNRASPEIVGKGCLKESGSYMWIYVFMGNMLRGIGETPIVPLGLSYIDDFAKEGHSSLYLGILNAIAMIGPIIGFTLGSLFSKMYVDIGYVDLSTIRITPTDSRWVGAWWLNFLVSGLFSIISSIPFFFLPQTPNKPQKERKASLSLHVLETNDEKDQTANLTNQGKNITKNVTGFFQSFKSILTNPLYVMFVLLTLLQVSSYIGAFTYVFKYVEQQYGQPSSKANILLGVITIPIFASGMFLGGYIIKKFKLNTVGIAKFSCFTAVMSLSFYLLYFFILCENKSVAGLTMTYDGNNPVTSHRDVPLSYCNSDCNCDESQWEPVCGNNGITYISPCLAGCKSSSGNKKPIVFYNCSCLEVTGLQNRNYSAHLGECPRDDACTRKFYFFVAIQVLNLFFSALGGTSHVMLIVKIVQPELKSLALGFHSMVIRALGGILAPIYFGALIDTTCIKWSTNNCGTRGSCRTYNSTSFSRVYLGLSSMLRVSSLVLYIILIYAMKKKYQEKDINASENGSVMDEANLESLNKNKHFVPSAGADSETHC
T6 sequence (P08684 whole entry): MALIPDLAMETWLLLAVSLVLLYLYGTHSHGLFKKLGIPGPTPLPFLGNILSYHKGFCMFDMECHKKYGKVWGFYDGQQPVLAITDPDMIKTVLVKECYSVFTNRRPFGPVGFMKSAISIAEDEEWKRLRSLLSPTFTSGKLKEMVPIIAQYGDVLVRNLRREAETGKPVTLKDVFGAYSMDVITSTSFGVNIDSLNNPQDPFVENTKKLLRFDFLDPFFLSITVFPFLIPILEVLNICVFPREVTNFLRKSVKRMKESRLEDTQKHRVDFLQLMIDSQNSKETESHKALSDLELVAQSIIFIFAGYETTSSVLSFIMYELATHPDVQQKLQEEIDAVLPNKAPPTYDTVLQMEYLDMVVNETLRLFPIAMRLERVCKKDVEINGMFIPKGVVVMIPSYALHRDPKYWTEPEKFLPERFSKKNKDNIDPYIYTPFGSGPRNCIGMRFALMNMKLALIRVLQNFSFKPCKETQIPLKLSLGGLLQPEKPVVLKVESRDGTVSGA
Chain of human OATP1B3 (Q9NPD5 whole entry): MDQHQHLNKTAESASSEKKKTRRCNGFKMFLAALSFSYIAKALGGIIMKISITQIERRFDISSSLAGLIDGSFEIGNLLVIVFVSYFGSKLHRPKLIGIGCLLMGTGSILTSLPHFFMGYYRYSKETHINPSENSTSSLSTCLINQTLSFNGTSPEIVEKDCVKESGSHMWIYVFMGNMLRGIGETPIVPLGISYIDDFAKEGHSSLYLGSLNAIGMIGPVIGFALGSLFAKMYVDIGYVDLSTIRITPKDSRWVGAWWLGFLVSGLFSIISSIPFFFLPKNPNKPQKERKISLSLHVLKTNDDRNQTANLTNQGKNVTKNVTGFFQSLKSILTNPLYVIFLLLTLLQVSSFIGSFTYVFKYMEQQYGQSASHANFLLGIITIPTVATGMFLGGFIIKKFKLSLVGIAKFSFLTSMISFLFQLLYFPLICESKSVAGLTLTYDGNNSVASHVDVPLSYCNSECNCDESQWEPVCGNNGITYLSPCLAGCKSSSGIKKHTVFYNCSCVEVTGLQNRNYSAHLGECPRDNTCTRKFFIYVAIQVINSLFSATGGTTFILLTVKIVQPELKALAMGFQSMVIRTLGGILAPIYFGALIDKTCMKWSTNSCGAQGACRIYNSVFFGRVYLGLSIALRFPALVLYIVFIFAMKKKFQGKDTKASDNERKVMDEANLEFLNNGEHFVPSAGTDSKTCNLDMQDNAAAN
Chain of human OAT1 (Q4U2R8 whole entry): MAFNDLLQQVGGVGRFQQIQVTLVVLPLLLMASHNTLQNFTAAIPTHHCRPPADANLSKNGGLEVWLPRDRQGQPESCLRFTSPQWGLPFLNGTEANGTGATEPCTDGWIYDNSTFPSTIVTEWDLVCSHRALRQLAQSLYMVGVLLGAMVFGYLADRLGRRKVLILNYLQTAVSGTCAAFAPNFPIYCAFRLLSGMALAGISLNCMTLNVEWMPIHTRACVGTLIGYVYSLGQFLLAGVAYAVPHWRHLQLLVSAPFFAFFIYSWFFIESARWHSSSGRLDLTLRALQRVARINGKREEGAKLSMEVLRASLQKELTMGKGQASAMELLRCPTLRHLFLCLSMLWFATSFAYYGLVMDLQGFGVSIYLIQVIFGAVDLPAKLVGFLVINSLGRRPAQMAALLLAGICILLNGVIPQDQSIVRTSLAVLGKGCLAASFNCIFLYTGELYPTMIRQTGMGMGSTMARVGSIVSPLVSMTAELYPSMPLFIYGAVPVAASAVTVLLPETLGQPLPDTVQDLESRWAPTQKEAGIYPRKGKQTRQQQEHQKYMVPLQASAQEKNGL

CCCCCOc1ccc(-c2ccc(-c3ccc(C(=O)N[C@H]4C[C@@H](O)[C@@H](OCC[N+](C)(C)C)NC(=O)[C@@H]5[C@@H](O)[C@@H](C)CN5C(=O)[C@H]([C@@H](C)O)NC(=O)[C@H]([C@H](O)[C@@H](O)c5ccc(O)cc5)NC(=O)[C@@H]5C[C@@H](O)CN5C(=O)[C@H]([C@@H](C)O)NC4=O)cc3)cc2)cc1 [Rezafungin] ({pTerphenylCO(4''-OnC5H11)}-[Orn(4R-OH,5R-OCH2CH2NMe3+)]T[Hyp][hTyr(3S-OH,4S-OH)]T[Pro(3S-OH,4S-Me)]; lactam 1-C)
substrate of P-gp (human P-gp [1]): not a substrate
substrate of BCRP (BCRP): not a substrate
substrate of OATP1B1 (human OATP1B1): not to be a substrate
uptake ratio, OATP1B1 (human OATP1B1): < 2
substrate of OATP1B3 (human OATP1B3): not to be a substrate
uptake ratio, OATP1B3 (human OATP1B3): < 2
inhibitor of probe substrate transport mediated via P-gp (human P-gp [2]): determined to be an inhibitor; also recorded: could not be ruled out
inhibitor of probe substrate transport mediated via OAT1 (human OAT1): determined to be an inhibitor
inhibitor of probe substrate transport mediated via OCT1 (OCT1; in vitro cell test system, NC-152): determined to be an inhibitor
IC50 (OCT1; initial in vitro studies, read-out: IC50, OCT-1 uptake transporter (moderate inhibition)): > 6 µM
inhibition of CYP1A2 (CYP1A2 [3]): Minimal inhibition
inhibition of CYP2B6 (CYP2B6 [4]): Minimal inhibition
inhibition at 10 µM (CYP2C8 [5]): 63%
IC50 (CYP3A4 [6]): > 25 µM
time-dependent inhibitor of CYP1A2 (CYP1A2 [7]): not a time-dependent inhibitor
time-dependent inhibitor of CYP2B6 (CYP2B6 [8]): not a time-dependent inhibitor
time-dependent inhibitor of CYP3A4 (CYP3A4 [9]): not a time-dependent inhibitor
time-dependent inhibitor of CYP2D6 (CYP2D6): not a time-dependent inhibitor
IC50 (CYP2C8 [10]): > 25 µM
time-dependent inhibitor of CYP2C8 (CYP2C8 [11]): not a time-dependent inhibitor
